In patent US9587266B2, “Mutant luciferases” (University of Massachusetts, priority 2011, dated 2017):
Values joined by “and” are separate entries in the source; they are usually repeats but may differ in a detail not shown here. Equal values may be shown once.

Key:
[1] = biological target: T1, WT luciferase (Photinus pyralis, UniProt P08659); assay type: biochemical; conditions: WT luciferase treated with D-luciferin; inhibitor 2 or 20 μM, enzyme titration
T1 construct: The full firefly (Photinus pyralis) luciferase gene was PCR amplified from pGL3 (Promega); GST (N, cleaved yes); made in house; host or cells: E. coli JM109
Protocol: Luminescence assays in 96-well plates were initiated by adding 30 μL 2× luciferin substrate in 20 mM Tris pH 7.4, 0.1 mM EDTA, 8 mM MgSO4, 4 mM ATP, and 1 mM TCEP to 30 μL of 20 nM purified luciferase in 20 mM Tris pH 7.4, 0.1 mM EDTA, 1 mM TCEP and 0.4 mg/mL BSA. Substrate titration assays were performed 3 minutes post-substrate addition in a Turner Veritas luminometer with final substrate concentrations ranging from 0.122-250 μM in the presence of 0 μM, 1 μM, or 10 μM of the luciferase inhibitor 2-(4-methoxyphenyl)benzothiazole. Enzyme titration assays were performed under the same conditions, using 0 μM, 2 or 20 μM of the luciferase inhibitor 2-(4-methoxyphenyl)benzothiazole, a constant final luciferin substrate concentration of 20 μM, and serial 2-fold dilutions of luciferase concentration from 20 nM down to 0.01 nM.

[2] = biological target: T2, R218K luciferase (Photinus pyralis, UniProt P08659, R218K); assay: Small molecule luciferase inhibition assay; assay type: biochemical; conditions: inhibitor 2 or 20 μM, enzyme titration
T2 construct: The full firefly (Photinus pyralis) luciferase gene was PCR amplified from pGL3 (Promega); GST (N, cleaved yes); made in house; host or cells: E. coli JM109
Protocol: Enzyme titration assays were performed under the same conditions, using 0 μM, 2 or 20 μM of the luciferase inhibitor 2-(4-methoxyphenyl)benzothiazole, a constant final luciferin substrate concentration of 20 μM, and serial 2-fold dilutions of luciferase concentration from 20 nM down to 0.01 nM.

[3] = biological target: T3, L286M mutant luciferase (Photinus pyralis, UniProt P08659, L286M); assay: Titration assay with purified protein; assay type: biochemical
T3 construct: The full firefly (Photinus pyralis) luciferase gene was PCR amplified from pGL3 (Promega); GST (N, cleaved yes); made in house; host or cells: E. coli JM109
Protocol: (§1) The PCR product was cloned into the BamH1 and NotI sites of pGEX6P-1 for bacterial expression. Mutant proteins were created using the Quickchange site-directed mutagenesis kit (Stratagene). Saturating mutagenesis was performed using the used the degenerate codon NNK at sites predicted to impact or alter substrate biding including F247, T251, L286, S347, R337, R218, Q338, Y340, A313, and I351 using the degenerate codon NNK.
(§2) Luminescence assays in 96-well plates were initiated by adding 30 μL 2× substrate in 20 mM Tris pH 7.6, 0.1 mM EDTA, 8 mM MgSO4, 4 mM ATP, and 1 mM TCEP to 30 μL of 20 nM purified luciferase in 20 mM Tris pH 7.6, 0.1 mM EDTA, 1 mM TCEP and 0.4 mg/mL BSA.

[4] = biological target: T4, T251S mutant luciferase (Photinus pyralis, UniProt P08659, T251S); assay: Titration assay with purified protein; assay type: biochemical
T4 construct: The full firefly (Photinus pyralis) luciferase gene was PCR amplified from pGL3 (Promega); GST (N, cleaved yes); made in house; host or cells: E. coli JM109
Protocol: as §1, §2

[5] = biological target: T5, R218K mutant luciferase (Photinus pyralis, UniProt P08659, R218K); assay type: biochemical; conditions: R218K luciferase, purified protein
T5 construct: The full firefly (Photinus pyralis) luciferase gene was PCR amplified from pGL3 (Promega); GST (N, cleaved yes); made in house; host or cells: E. coli JM109
Protocol: as §1, §2

[6] = biological target: T6, S347A mutant luciferase (Photinus pyralis, UniProt P08659, S347A); assay type: biochemical; conditions: for Apparent Vmax: purified protein
T6 construct: The full firefly (Photinus pyralis) luciferase gene was PCR amplified from pGL3 (Promega); GST (N, cleaved yes); made in house; host or cells: E. coli JM109
Protocol: as §1, §2

[7] = biological target: T1, WT luciferase; assay: Titration assay with purified protein; assay type: biochemical
Protocol: (§3) The PCR product was cloned into the BamH1 and NotI sites of pGEX6P-1 for bacterial expression. Mutant proteins were created using the Quickchange site-directed mutagenesis kit (Stratagene). Saturating mutagenesis was performed using the used the degenerate codon NNK at sites predicted to impact or alter substrate biding including F247, T251, L286, S347, R337, R218, Q338, Y340, A313, and I351 using the degenerate codon NNK. The point mutants S347A, L286A, A348G, E311A, I351A, A313G, R337A, H245A and L342A were made independently.
(§4) Luminescence assays in 96-well plates were initiated by adding 30 μL 2× substrate in 20 mM Tris pH 7.6, 0.1 mM EDTA, 8 mM MgSO4, 4 mM ATP, and 1 mM TCEP to 30 μL of 20 nM purified luciferase in 20 mM Tris pH 7.6, 0.1 mM EDTA, 1 mM TCEP and 0.4 mg/mL BSA. Titration assays were performed 3 minutes post-substrate addition in a Turner Veritas luminometer with final substrate concentrations ranging from 0.122-250 μM or 0.244-500 μM.

[8] = biological target: T1, WT luciferase; assay type: biochemical; conditions: for Wavelength at Max. Emission: Table 2; for Maximum Emission Wavelength of Selected Substrate: Table 3
Protocol: (§5) Purified mutant luciferases were used in bioluminescence emission and burst kinetics scans. Each purified protein in 20 mM Tris pH 7.6, 0.1 mM EDTA, 1 mM TCEP and 0.4 mg/mL BSA was added to 2× substrate in 20 mM Tris pH 7.6, 0.1 mM EDTA, 8 mM MgSO4, 4 mM ATP, and 1 mM TCEP in a cuvette.
(§6) Luciferase was rapidly injected into a cuvette containing substrate, and the emission from 400-800 nm was recorded in a SPEX FluoroMax-3 fluorimeter with closed excitation slits.

[9] = biological target: T7, F247A luciferase (Photinus pyralis, UniProt P08659, F247A); assay: Bioluminescence emission scan; assay type: biochemical
T7 construct: The full firefly (Photinus pyralis) luciferase gene was PCR amplified from pGL3 (Promega); GST (N, cleaved yes); made in house; host or cells: E. coli JM109
Protocol: (§7) Purified mutant luciferases were used in bioluminescence emission and burst kinetics scans.
as §6

[10] = biological target: T8, F247R luciferase (Photinus pyralis, UniProt P08659, F247R); assay: Bioluminescence emission scan; assay type: biochemical
T8 construct: The full firefly (Photinus pyralis) luciferase gene was PCR amplified from pGL3 (Promega); GST (N, cleaved yes); made in house; host or cells: E. coli JM109
Protocol: as §7, §6

[11] = biological target: T9, F247S luciferase (Photinus pyralis, UniProt P08659, F247S); assay: Bioluminescence emission scan; assay type: biochemical
T9 construct: The full firefly (Photinus pyralis) luciferase gene was PCR amplified from pGL3 (Promega); GST (N, cleaved yes); made in house; host or cells: E. coli JM109
Protocol: as §7, §6

[12] = biological target: T10, F247V luciferase (Photinus pyralis, UniProt P08659, F247V); assay: Bioluminescence emission scan; assay type: biochemical
T10 construct: The full firefly (Photinus pyralis) luciferase gene was PCR amplified from pGL3 (Promega); GST (N, cleaved yes); made in house; host or cells: E. coli JM109
Protocol: as §7, §6

[13] = biological target: T11, L286M luciferase (Photinus pyralis, UniProt P08659, L286M); assay: Bioluminescence emission scan; assay type: biochemical
T11 construct: The full firefly (Photinus pyralis) luciferase gene was PCR amplified from pGL3 (Promega); GST (N, cleaved yes); made in house; host or cells: E. coli JM109
Protocol: as §7, §6

[14] = biological target: T12, L286Y luciferase (Photinus pyralis, UniProt P08659, L286Y); assay: Bioluminescence emission scan; assay type: biochemical
T12 construct: The full firefly (Photinus pyralis) luciferase gene was PCR amplified from pGL3 (Promega); GST (N, cleaved yes); made in house; host or cells: E. coli JM109
Protocol: as §7, §6

[15] = biological target: T13, S347A luciferase (Photinus pyralis, UniProt P08659, S347A); assay: Bioluminescence emission scan; assay type: biochemical
T13 construct: The full firefly (Photinus pyralis) luciferase gene was PCR amplified from pGL3 (Promega); GST (N, cleaved yes); made in house; host or cells: E. coli JM109
Protocol: as §7, §6

[16] = biological target: T14, S347T luciferase (Photinus pyralis, UniProt P08659, S347T); assay: Bioluminescence emission scan; assay type: biochemical
T14 construct: The full firefly (Photinus pyralis) luciferase gene was PCR amplified from pGL3 (Promega); GST (N, cleaved yes); made in house; host or cells: E. coli JM109
Protocol: as §7, §6

[17] = biological target: T15, T251N luciferase (Photinus pyralis, UniProt P08659, T251N); assay: Bioluminescence emission scan; assay type: biochemical
T15 construct: The full firefly (Photinus pyralis) luciferase gene was PCR amplified from pGL3 (Promega); GST (N, cleaved yes); made in house; host or cells: E. coli JM109
Protocol: as §7, §6

[18] = biological target: T16, T251Q luciferase (Photinus pyralis, UniProt P08659, T251Q); assay: Bioluminescence emission scan; assay type: biochemical
T16 construct: The full firefly (Photinus pyralis) luciferase gene was PCR amplified from pGL3 (Promega); GST (N, cleaved yes); made in house; host or cells: E. coli JM109
Protocol: as §7, §6

[19] = biological target: T17, T251S luciferase (Photinus pyralis, UniProt P08659, T251S); assay: Bioluminescence emission scan; assay type: biochemical
T17 construct: The full firefly (Photinus pyralis) luciferase gene was PCR amplified from pGL3 (Promega); GST (N, cleaved yes); made in house; host or cells: E. coli JM109
Protocol: as §7, §6

[20] = biological target: T18, R218K + L342A luciferase (Photinus pyralis, UniProt P08659, L342A/R218K); assay type: biochemical
T18 construct: The full firefly (Photinus pyralis) luciferase gene was PCR amplified from pGL3 (Promega); GST (N, cleaved yes); made in house; host or cells: E. coli JM109
Protocol: as §5, §6

[21] = biological target: T19, L286M + S347A luciferase (Photinus pyralis, UniProt P08659, L286M/S347A); assay: Bioluminescence emission scan; assay type: biochemical
T19 construct: The full firefly (Photinus pyralis) luciferase gene was PCR amplified from pGL3 (Promega); GST (N, cleaved yes); made in house; host or cells: E. coli JM109
Protocol: as §7, §6

[22] = biological target: T20, L342A luciferase (Photinus pyralis, UniProt P08659, L342A); assay: Bioluminescence emission scan; assay type: biochemical
T20 construct: The full firefly (Photinus pyralis) luciferase gene was PCR amplified from pGL3 (Promega); GST (N, cleaved yes); made in house; host or cells: E. coli JM109
Protocol: as §7, §6

[23] = biological target: T2, R218K luciferase; assay: Bioluminescence emission scan; assay type: biochemical
Protocol: as §7, §6

[24] = biological target: F247L mutant luciferase (Photinus pyralis, UniProt P08659, F247L); conditions: F247L mutant relative to wild-type luciferase
Protocol: as §3, §4

[25] = biological target: T21, F247L L286M luciferase (Photinus pyralis, UniProt P08659, F247L/L286M); assay: Bioluminescence emission scan; assay type: biochemical
T21 construct: The full firefly (Photinus pyralis) luciferase gene was PCR amplified from pGL3 (Promega); GST (N, cleaved yes); made in house; host or cells: E. coli JM109
Protocol: as §7, §6

[26] = biological target: T22, T251S L286M luciferase (Photinus pyralis, UniProt P08659, L286M/T251S); assay: Bioluminescence emission scan; assay type: biochemical
T22 construct: The full firefly (Photinus pyralis) luciferase gene was PCR amplified from pGL3 (Promega); GST (N, cleaved yes); made in house; host or cells: E. coli JM109
Protocol: as §7, §6

[27] = read-out: Apparent Km, 3 minutes post-substrate addition

T3 sequence (P08659 whole entry L286M): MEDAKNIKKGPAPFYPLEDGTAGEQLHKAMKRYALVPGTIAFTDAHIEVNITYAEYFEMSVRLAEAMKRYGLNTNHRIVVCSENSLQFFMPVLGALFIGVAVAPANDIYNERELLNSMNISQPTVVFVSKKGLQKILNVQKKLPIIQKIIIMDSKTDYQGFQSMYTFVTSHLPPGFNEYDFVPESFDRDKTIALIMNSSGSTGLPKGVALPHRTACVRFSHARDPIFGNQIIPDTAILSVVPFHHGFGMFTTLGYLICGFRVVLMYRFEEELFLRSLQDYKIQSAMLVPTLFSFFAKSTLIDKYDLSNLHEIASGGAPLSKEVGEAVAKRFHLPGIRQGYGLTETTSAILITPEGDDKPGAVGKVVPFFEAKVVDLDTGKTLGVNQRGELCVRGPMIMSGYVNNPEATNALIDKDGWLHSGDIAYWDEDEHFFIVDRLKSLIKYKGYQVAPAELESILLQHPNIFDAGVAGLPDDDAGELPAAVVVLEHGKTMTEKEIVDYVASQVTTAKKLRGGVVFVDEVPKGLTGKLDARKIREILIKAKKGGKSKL
T4 sequence (P08659 whole entry T251S): as the sequence (P08659 whole entry L286M) above, with T251S, M286L counted along it
T2 sequence (P08659 whole entry R218K): as the sequence (P08659 whole entry L286M) above, with R218K, M286L counted along it
T5 sequence (P08659 whole entry R218K): as the sequence (P08659 whole entry L286M) above, with R218K, M286L counted along it
T6 sequence (P08659 whole entry S347A): as the sequence (P08659 whole entry L286M) above, with M286L, S347A counted along it
T1 sequence (P08659 whole entry): as the sequence (P08659 whole entry L286M) above, with M286L counted along it
T11 sequence (P08659 whole entry L286M): as the sequence (P08659 whole entry L286M) above
Chain of F247L mutant luciferase (P08659 whole entry F247L): as the sequence (P08659 whole entry L286M) above, with F247L, M286L counted along it
T14 sequence (P08659 whole entry S347T): as the sequence (P08659 whole entry L286M) above, with M286L, S347T counted along it
T20 sequence (P08659 whole entry L342A): as the sequence (P08659 whole entry L286M) above, with M286L, L342A counted along it
T13 sequence (P08659 whole entry S347A): as the sequence (P08659 whole entry L286M) above, with M286L, S347A counted along it
T19 sequence (P08659 whole entry L286M/S347A): as the sequence (P08659 whole entry L286M) above, with S347A counted along it
T18 sequence (P08659 whole entry R218K/L342A): as the sequence (P08659 whole entry L286M) above, with R218K, M286L, L342A counted along it
T10 sequence (P08659 whole entry F247V): as the sequence (P08659 whole entry L286M) above, with F247V, M286L counted along it
T15 sequence (P08659 whole entry T251N): as the sequence (P08659 whole entry L286M) above, with T251N, M286L counted along it
T17 sequence (P08659 whole entry T251S): as the sequence (P08659 whole entry L286M) above, with T251S, M286L counted along it
T21 sequence (P08659 whole entry F247L/L286M): as the sequence (P08659 whole entry L286M) above, with F247L counted along it
T22 sequence (P08659 whole entry T251S/L286M): as the sequence (P08659 whole entry L286M) above, with T251S counted along it
T7 sequence (P08659 whole entry F247A): as the sequence (P08659 whole entry L286M) above, with F247A, M286L counted along it
T9 sequence (P08659 whole entry F247S): as the sequence (P08659 whole entry L286M) above, with F247S, M286L counted along it
T8 sequence (P08659 whole entry F247R): as the sequence (P08659 whole entry L286M) above, with F247R, M286L counted along it
T12 sequence (P08659 whole entry L286Y): as the sequence (P08659 whole entry L286M) above, with M286Y counted along it
T16 sequence (P08659 whole entry T251Q): as the sequence (P08659 whole entry L286M) above, with T251Q, M286L counted along it

SMILES	Apparent Vmax [3]	Apparent Vmax [4]	Apparent Vmax [5]	Apparent Vmax [6]	Apparent Vmax [7]	Wavelength at Max. Emission [8] [nm]	Wavelength at Max. Emission [12] [nm]	Wavelength at Max. Emission [13] [nm]	Wavelength at Max. Emission [15] [nm]	Wavelength at Max. Emission [16] [nm]	Maximum Emission Wavelength of Selected Substrate [20] [nm]	Maximum Emission Wavelength of Selected Substrate [8] [nm]	Maximum Emission Wavelength of Selected Substrate [21] [nm]	Maximum Emission Wavelength of Selected Substrate [22] [nm]	Maximum Emission Wavelength of Selected Substrate [23] [nm]	also measured
COc1ccc(-c2nc3ccccc3s2)cc1 [2-(4-methoxyphenyl)-benzothiazole, 2-(4-methoxyphenyl)benzothiazole]	–	–	–	–	–	–	–	–	–	–	–	–	–	–	–	effect of luciferase inhibitor on light output [1]: strongly inhibited; effect of luciferase inhibitor on light output ([2]; R218K luciferase treated with D-luciferin): strongly inhibited; effect of luciferase inhibitor on light output ([2]; R218K luciferase with CycLuc2 as substrate): largely unaffected
O=C(O)[C@H]1CSC(c2nc3ccc(O)cc3s2)=N1 [D-Luciferin, D-luciferin]	1060 ± 26 ×10^−5 cps	1054 ± 19 ×10^−5 cps	1541 ± 21 ×10^−5 cps	142.8 ± 3 ×10^−5 cps	1079 ± 13 ×10^−5 cps	554	600	564	573	561	–	–	–	–	–	Km [3, 27]: 19.1 ± 1.3 µM; Km [4, 27]: 114 ± 3.4 µM; Km [5, 27]: 106 ± 2.6 µM; Km ([6]; read-out: Apparent Km, purified protein, 3 minutes post-substrate addition): 76.6 ± 3.1 µM; Wavelength at Max. Emission [9]: 591 nm; Wavelength at Max. Emission [10]: 605 nm; Wavelength at Max. Emission [11]: 588 nm; Wavelength at Max. Emission [14]: 606 nm; Wavelength at Max. Emission [17]: 555 nm; Wavelength at Max. Emission [18]: 626 nm; Wavelength at Max. Emission [19]: 553 nm
O=C(O)C1CSC(c2nc3cc4c(cc3s2)NCCO4)=N1 (stereo not drawn) [CycLuc3, 2-(7,8-Dihydro-6H-5-oxa-1-thia-3,8-diaza-cyclopenta[b]naphthalen-2-yl)-4,5-dihydro-thiazole-4-carboxylic acid]	–	–	–	–	–	594	599	592	–	–	606	599	590	599	605	–
Nc1ccc2nc(C3=N[C@@H](C(=O)O)CS3)sc2c1 [6′-NH2LH2, 6′-aminoluciferin]	62 ± 0.7 ×10^−5 cps	51 ± 0.3 ×10^−5 cps	157 ± 3.7 ×10^−5 cps	91 ± 0.4 ×10^−5 cps	35 ± 0.25 ×10^−5 cps	595	–	–	591	583	594	594	589	591	599	improvement of maximal sustained light emission [24]: 4.9 fold and > 5 fold; Wavelength at Max. Emission [25]: 592 nm; Wavelength at Max. Emission [26]: 602 nm
